In article PMC6934184, “Selective DNA-PKcs inhibition extends the therapeutic index of localized radiotherapy and chemotherapy” (The Journal of Clinical Investigation, 2019):

System: MCF7 cells
Test: clonogenic survival with 2 Gy IR, DNA repair inhibitors
Type: cell-based, Human
Details: 1 h before and 24 h after IR
Experimental: Cells were washed in phosphate-buffered saline (PBS), trypsinized and counted. Cells were then reseeded at a known density in drug-free medium into 10 cm dishes (100 - 10 000 cells/dish) and incubated for 8-21 days. Colonies were fixed using Carnoys fixture (75% v/v methanol, 25% v/v acetic acid, Fisher), stained with crystal violet (0.4% w/v in water), and counted using a ColCount automated colony counter (Oxford Optronics). Cell survival was calculated as a percentage of the untreated control.
Alternatively, exponentially growing MCF7 cells were exposed to a range of concentrations of the PARP inhibitor rucaparib, the ATM inhibitor KU55933, the ATR inhibitor VE-821 or NU5455 for 1 hour prior to irradiation with 2 Gy. Cells were then incubated in the continued presence of the DNA repair inhibitors for a further 24 hours prior to replating. […]

**Q.** Which results are given for `CN(C(=O)CN1CCOCC1)c1ccc2sc3c(-c4cccc5c(=O)cc(N6CC7CCC(C6)O7)oc45)cccc3c2c1` [NU5455]?
**A.** SER (sensitization enhancement ratio), enhancement of 2 Gy IR clonogenic cell killing (at 1 μM): 11.5 fold; SER (sensitization enhancement ratio), enhancement of 2 Gy IR clonogenic cell killing (at 3 μM): 38 fold
